This passage reports IC50 and EC50 results from patent US10981932B2, “Macrocyclic indole derivatives” (Bayer Aktiengesellschaft, priority 2016, dated 2021).

Where a name gives a salt, the structure may show the parent alone.

Experiment [1] has as its target MCL-1 (Homo sapiens, UniProt Q07820). The experiment is described as follows: Protein-protein interaction assay MCL-1/Noxa BH3 peptide (MCL-1 assay), TR-FRET. The note with it: MBP-MCL-1 / Noxa BH3-derived peptide, median. It is filed as binding. The method in brief:
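Displacement of the biotinylated Noxa BH3 peptide from MBP-tagged human MCL-1 (1 nM) is detected by time-resolved FRET. Compounds are tested in duplicate across eleven concentrations up to 20 μM, incubated 1 h at 22 °C and overnight at 4 °C, and IC50 is fitted with a four-parameter equation.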

The test system of experiment [2] is SUDHL5. Nature of the experiment: Induction of caspase-3/7 activity (Caspase-Glo 3/7), SUDHL5. The format is cell-based. The note with it: caspase-3/7 induction, SUDHL5 cells, 3 h treatment, median. The method in brief: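 Caspase-Glo 3/7 luminescence, 3 h compound exposure, 37 °C, humidified. Minus medium-only blank. EC50 fit: C0=1, plateau = reference max induction.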

The target in experiment [3] is T1, BCL-2 (Homo sapiens, UniProt P10415).
T1 construct: BCL-2 (amino acids 1-211, C-terminal fused to a hexahistidine (6×His) tag); purchased BPS Bioscience (San Diego, Calif., USA); host or cells: E. coli
The experiment is described as follows: Protein-protein interaction assay BCL-2/Bad BH3 peptide (BCL-2 assay), TR-FRET. The format is binding. The note with it: His-BCL-2 / Bad BH3-derived peptide, median. The method, then:
Protein-Protein Interaction Assay: BCL-2/Bad BH3 Peptide (BCL-2 Assay)
The dose-dependent inhibition by the compounds described in this invention of the interaction between BCL-2 and the BH3 domain of Bad (both human) was determined using a steady state binding competition assay with time-resolved fluorescence energy transfer (TR-FRET) readout. For that purpose BCL-2 (amino acids 1-211, C-terminal fused to a hexahistidine (6×His) tag and a synthetic Bad BH3-derived peptide of sequence Biotin-PEG2-PEG2-NLWAAQRYGRELRR-Nle-SDEFVDSFKK-amide (SEQ ID NO: 2) served as protein receptor and tracer ligand respectively. The recombinant BCL-2 protein (expressed in E. coli) was purchased from BPS Bioscience (San Diego, Calif., USA). The Bad BH3-derived peptide can be obtained from e.g. Biosyntan (Berlin, Germany).
In the assay 11 different concentrations of each compound (0.1 nM, 0.33 nM, 1.1 nM, 3.8 nM. 13 nM, 44 nM, 0.15 μM, 0.51 μM, 1.7 μM, 5.9 μM and 20 μM) were typically measured as duplicates in the same microtiter plate. For that, 100-fold concentrated DMSO solutions were prepared by serial dilutions (1:3.4) of a 2 mM stock solution in a clear, 384-well microtiter plate (Greiner Bio-One, Frickenhausen, Germany). From there, 50 nl were transferred in a dark test plate (Greiner Bio-One. Frickenhausen, Germany). The assay was initiated by addition of 2 μl of a 2,5-fold concentrated His-BCL-2 solution (usually for a 1 nM end concentration in 5 μl reaction volume) in aqueous assay buffer [50 mM Tris/HCl pH 7, 100 mM sodium chloride (NaCl), 50 mM potassium fluoride (KF), 0.005% Tween-20, 2 mM DTT, 0.1% bovine gamma globulin (BGG)] to the compounds in the assay plate. This was followed by a 10-minute incubation step at 22° C. for pre-equilibration of the putative complex between His-BCL-2 and the compounds.
The mixture was incubated in the dark for one hour at 22° C. and then overnight at 4° C. The formation of BCL-2/Bad complexes was determined by measuring the resonance energy transfer of the anti-His-Eu-cryptate antibody to the streptavidin-XL665 present in the reaction. For that purpose, the fluorescence emission at 620 nm and 665 nm after excitation at 330-350 nm was measured in a TR-FRET measuring instrument, for instance a Rubystar or a Pherastar (both from BMG Lab Technologies. Offenburg, Germany) or a Viewlux (Perkin-Elmer). The ratio of the emission at 665 nm and at 622 nm was used as indicator of the amount of BCL-2/Bad complexes present.
The resulting data (ratio) were normalized, taking 0% inhibition as the mean value of control measurements (usually 32 data points) where all reagents were included. In this case 50 nl DMSO were used instead of compounds. A 100% inhibition corresponded to the mean value of control measurements (usually 32 data points) where all reagents except BCL-2 were included. IC50 values were determined by regression analysis based on a 4 parameter equation (minimum, maximum, IC50, Hill; Y=Max+(Min−Max)/(1+(X/IC50)^Hill) using the Screener Software (Genedata).

Usually IC50 stands for the concentration that inhibits the measured activity by half. Read a low IC50 as greater potency. As usually defined, the EC50 is the concentration at which the effect is half-maximal. A lower EC50 goes with an effect from little substance.

T1 sequence (P10415 1-211): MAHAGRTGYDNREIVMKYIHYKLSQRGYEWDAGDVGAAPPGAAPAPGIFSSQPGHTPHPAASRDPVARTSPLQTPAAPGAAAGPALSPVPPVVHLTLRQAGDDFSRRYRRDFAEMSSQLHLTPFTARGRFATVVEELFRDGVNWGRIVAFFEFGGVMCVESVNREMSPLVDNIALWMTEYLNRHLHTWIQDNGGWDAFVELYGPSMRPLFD
Chain of MCL-1 (Q07820 whole entry): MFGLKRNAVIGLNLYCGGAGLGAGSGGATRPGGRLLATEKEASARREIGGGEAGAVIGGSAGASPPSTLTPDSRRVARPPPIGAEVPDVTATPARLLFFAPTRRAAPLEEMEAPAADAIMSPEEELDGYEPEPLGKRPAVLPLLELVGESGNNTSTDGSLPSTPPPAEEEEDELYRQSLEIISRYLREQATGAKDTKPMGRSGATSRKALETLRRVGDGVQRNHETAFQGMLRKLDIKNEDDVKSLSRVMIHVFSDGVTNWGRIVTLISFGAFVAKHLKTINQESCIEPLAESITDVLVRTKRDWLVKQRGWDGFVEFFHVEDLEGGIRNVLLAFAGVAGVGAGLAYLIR

On to `Cc1c2c(nn1C)COCCCCn1c(C(=O)O)c(CCCOc3cccc4ccccc34)c3cccc-2c31` (racemic) [Example 1-36, (rac)-2,3-dimethyl-7-[3-(naphthalen-1-yloxy)propyl]-2,10,11,12,13,15-hexahydropyrazolo[4′,3′:9,10][1,6]oxazacycloundecino[8,7,6-hi]indole-8-carboxylic Acid], for which the IC50 is 3.28 nM in experiment [1] and greater than 20000 nM in experiment [3]. In experiment [2] (Homo sapiens, SU-DHL-5, 3 h), this compound registered an EC50 of 3940 nM.

With `Cc1nn(C)c2c1-c1cccc3c(CCCOc4cccc5ccccc45)c(C(=O)O)n(c13)CCCCOCC2` (racemic) [Example 017, (rac)-1,3-dimethyl-7-[3-(1-naphthyloxy)propyl]-10,11,12,13,15,16-hexahydro-1H-pyrazolo[4′,3′:9,10][1,6]oxazacyclododecino[8,7,6-hi]indole-8-carboxylic Acid], the IC50 in experiment [1] was 8.96 nM; in experiment [3] it was greater than 20000 nM. Besides, it took 14700 nM to reach a half-maximal effect in experiment [2] (Homo sapiens, SU-DHL-5, 3 h) (EC50).

Turning to `Cc1ccc2c(CCCOc3cccc4c3CCCC4)c(C(=O)O)n3c2c1-c1c(C)nn(C)c1COCCCC3` (racemic) [Example 039, (rac)-1,3,4-trimethyl-7-[3-(5,6,7,8-tetrahydronaphthalen-1-yloxy)propyl]-110,11,12,13,15-hexahydropyrazolo[4′3′:9,10][1,6]oxazacycloundecino[8,7,6-hi]indole-8-carboxylic Acid], the IC50 is 5.01 nM in experiment [1] and greater than 20000 nM in experiment [3]. For the same compound, the half-maximal effective concentration (EC50) in experiment [2] (Homo sapiens, SU-DHL-5, 3 h) turned out to be 7470 nM.

In the case of `CC(C)c1c2c(nn1C)CN(C)CCCn1c(C(=O)O)c(CCCOc3cccc4ccccc34)c3cccc-2c31` (racemic) [Example 113, (rac)-7,10-dimethyl-1-[3-(naphthalen-1-yloxy)propyl]-11-(propan-2-yl)-4,5,6,7,8,10-hexahydropyrazolo[3′,4′:7,8][1,5]diazecino[9,10,1-hi]indole-2-carboxylic Acid], the values for the IC50 in experiment [1] and in experiment [3] were 19.7 nM and greater than 20000 nM, respectively.

As to `CCc1c2c(nn1C)CN(C)CCCn1c(C(=O)O)c(CCCOc3cccc4ccccc34)c3cccc-2c31` (racemic) [Example 141, (rac)-11-ethyl-7,10-dimethyl-1-[3-(1-naphthyloxy)propyl]-4,5,6,7,8,10-hexahydropyrazolo[3′,4′:7,8][1,5]diazecino[9,10,1-hi]indole-2-carboxylic Acid], the IC50 was 7.27 nM in experiment [1] and greater than 20000 nM in experiment [3]. In experiment [2] (Homo sapiens, SU-DHL-5, 3 h), this compound displayed a half-maximal effective concentration (EC50) of 4080 nM.

Regarding `CCc1c2c(nn1C)CN(C)CCCn1c(C(=O)O)c(CCCOc3cccc4ccccc34)c3ccc(C)c-2c31` (racemic) [Example 144, (rac)-11-ethyl-7,10,12-trimethyl-1-[3-(1-naphthyloxy)propyl]-4,5,6,7,8,10-hexahydropyrazolo[3′,4′:7,8][1,5]diazecino[9,10,1-hi]indole-2-carboxylic Acid], the IC50 in experiment [1] was 3.34 nM; in experiment [3], greater than 20000 nM. Also, the EC50 in experiment [2] (Homo sapiens, SU-DHL-5, 3 h) was 2850 nM.

Regarding `CCc1c2c(nn1C)COCCCCn1c(C(=O)O)c(CCCOc3cccc4ccccc34)c3ccc(C)c-2c31` (racemic) [Example 153, (rac)-3-Ethyl-2,4-dimethyl-7-[3-(1-naphthyloxy)propyl]-2,10,11,12,13,15-hexahydropyrazolo[4′,3′:9,10][1,6]oxazacycloundecino[8,7,6-hi]indole-8-carboxylic Acid], the IC50 was 4.8 nM in experiment [1] and greater than 20000 nM in experiment [3]. Also, in experiment [2] (Homo sapiens, SU-DHL-5, 3 h), the EC50 worked out at 1700 nM.

Take `CC(C)OCc1nn(C)c2c1-c1cccc3c(CCCOc4cccc5ccccc45)c(C(=O)O)n(c13)CCCCN(C)C2` (single isomer, unassigned) [Example 1-74, 1,14-dimethyl-7-[3-(naphthalen-1-yloxy)propyl]-3-[(propan-2-yloxy)methyl]-10,11,12,13,14,15-hexahydro-1H-pyrazolo[3′,4′:8,9][1,6]diazacycloundecino[10,11,1-hi]indole-8-carboxylic Acid]: the IC50 is 4.79 nM in experiment [1] and greater than 20000 nM in experiment [3]. Also, the EC50 in experiment [2] was found to be 8870 nM.

Regarding `CN1CCCn2c(C(=O)O)c(CCCOc3cccc4ccccc34)c3cccc(c32)-c2c(COc3ccc(N4CCN(S(=O)(=O)N(C)C)CC4)cc3)nn(C)c2C1` (single isomer, unassigned; enantiomer 1) [Example 1-15, (+)-11-({4-[4-(dimethylsulfamoyl)piperazin-1-yl]phenoxy}methyl)-7,9-dimethyl-1-[3-(naphthalen-1-yloxy)propyl]-4,5,6,7,8,9-hexahydropyrazolo[3′,4′:7,8][1,5]diazecino[9,10,1-hi]indole-2-carboxylic Acid (Enantiomer 1)], the IC50 in experiment [1] was 3.03 nM; in experiment [3], greater than 20000 nM. The same compound had an EC50 in experiment [2] of 1170 nM.

For the compound `Cn1nc(COc2ccc(N3CCN(C(=O)C4CC4)CC3)cc2)c2c1COCCCCn1c(C(=O)O)c(CCCOc3cccc4ccccc34)c3cccc-2c31` (single isomer, unassigned; enantiomer 1) [Example 1-22, 3-({4-[4-(cyclopropylcarbonyl)piperazin-1-yl]phenoxy}methyl)-1-methyl-7-[3-(naphthalen-1-yloxy)propyl]-1,10,11,12,13,15-hexahydropyrazolo[4′,3′:9,10][1,6]oxazacycloundecino[8,7,6-hi]indole-8-carboxylic Acid (Enantiomer 1)], the IC50 in experiment [1] is 0.787 nM; in experiment [3], greater than 20000 nM. The compound further returned an EC50 in experiment [2] of 1560 nM.

`Cc1nn(C)c2c1-c1cccc3c(CCCOc4cccc5ccccc45)c(C(=O)O)n(c13)CCCN(C)C2` (single isomer, unassigned; enantiomer 1) [Example 1-31, 7,9,11-trimethyl-1-[3-(naphthalen-1-yloxy)propyl]-4,5,6,7,8,9-hexahydropyrazolo[3′,4′:7,8][1,5]diazecino[9,10,1-hi]indole-2-carboxylic Acid-N-ethylethanamine Salt (Enantiomer 1)]: the IC50 in experiment [1] is 4.62 nM; in experiment [3], greater than 20000 nM. Further, it took 4330 nM to reach a half-maximal effect in experiment [2] (EC50).

For the compound `Cc1c2c(nn1C)COCCCCn1c(C(=O)O)c(CCCOc3cccc4ccccc34)c3cccc-2c31` (single isomer, unassigned; enantiomer 1) [Example 1-37, (+)-2,3-dimethyl-7-[3-(naphthalen-1-yloxy)propyl]-2,10,11,12,13,15-hexahydropyrazolo[4′,3′:9,10][1,6]oxazacycloundecino[8,7,6-hi]indole-8-carboxylic Acid (Enantiomer 1)], the IC50 is 1.72 nM in experiment [1] and greater than 20000 nM in experiment [3]. Besides, the response in experiment [2] was half-maximal at 2440 nM (EC50).

For `CN1CCCn2c(C(=O)O)c(CCCOc3cccc4ccccc34)c3cccc(c32)-c2c(CN3CCOCC3)nn(C)c2C1` (single isomer, unassigned; enantiomer 1) [Example 1-43, (+)-7,9-dimethyl-11-(morpholin-4-ylmethyl)-1-[3-(naphthalen-1-yloxy)propyl]-4,5,6,7,8,9-hexahydropyrazolo[3′,4′:7,8][1,5]diazecino[9,10,1-hi]indole-2-carboxylic Acid (Enantiomer 1)], the IC50 in experiment [1] is 7.99 nM; in experiment [3] it was greater than 20000 nM. In experiment [2] (Homo sapiens, SU-DHL-5, 3 h), this compound showed an EC50 of 6570 nM.
